Data reported in patent US20020123480A1, “Methods and compositions utilizing 2'-5' oligoadenylates in the treatment of disorders of cell proliferation” (priority 2000, published 2002).
In brackets after ≈: the same amount, converted by molar mass. Where two headings read alike, the source gives them in different places.

How the values were obtained:
[1] = test system: primary human cervical keratinocytes (PHK); assay: Growth of control primary human cervical keratinocytes, Coulter Counter cell count; assay type: cell-based; details: for IC50: Homo sapiens, Keratinocyte
[2] = test system: HeLa (HPV-18-positive); assay: Growth of HPV-positive HeLa cells, Coulter Counter cell count; assay type: cell-based, human; details: for IC50: Homo sapiens
[3] = test system: EiL8 (HPV-16-positive); assay: Growth of HPV-positive EiL8 cells, Coulter Counter cell count; assay type: cell-based, human; details: for IC50: Homo sapiens, read-out: IC50 (concentration required to reduce cell growth by 50%)
Procedure: (§1) The cells used in the first study included CK-1 (HPV-33-positive), EiL8 (HPV-16-positive), SiHa (HPV-16-positive) and HeLa (HPV-18-positive) and control primary human cervical keratinocytes (PHK). The cells were cultured in growth medium at 37° C., in 5% CO2. For these experiments, the cells were seeded in 96-well microtiter plates and after 24 hours of growth, serial dilutions of the test compounds were added. The cells were not fed after addition of the compounds. After three, five, seven and ten days, the cells were harvested by trypsinization and counted with a Coulter Counter. Duplicate wells were analyzed for each dilution and the results averaged. The number of cells recovered at each dilution was compared to the number of cells in untreated control wells and the concentration of test compound required to reduce cell growth by 50 percent (IC50) was determined.

[4] = test system: CK-1 (HPV-33-positive); assay: cells; assay type: cell-based; details: for IC50: Homo sapiens, read-out: IC50 (concentration required to reduce cell growth by 50%)
[5] = test system: SiHa (HPV-16-positive); assay: Growth of HPV-positive SiHa cells, Coulter Counter cell count; assay type: cell-based, human; details: for IC50: Homo sapiens
[6] = test system: human foreskin fibroblast (HFF) cells; assay: Growth of human foreskin fibroblasts, neutral red uptake and counting of cells; assay type: cell-based
Procedure: as §1
(§2) The human foreskin fibroblast (HFF) cells were cultured in growth medium as described above, but assayed by neutral red uptake and counting of cells. The human embryonic lung fibroblast (HEL) cells were cultured in growth medium and assayed as described above by counting with a Coulter Counter. Daudi cells, an Epstein-Barr Virus (EBV)-positive Burkitt's lymphoma tumor cell line, were cultured in growth medium as described above and assayed by the neutral red uptake assay. […]

[7] = test system: Daudi cells, an Epstein-Barr Virus (EBV)-positive Burkitt's lymphoma tumor cell line; assay: Growth of Daudi cells, neutral red uptake assay; assay type: cell-based, human
Procedure: as §1, §2

[8] = test system: human papillomavirus (HPV)-positive cell lines; assay: Growth of human papillomavirus (HPV)-positive cell lines in presence of test compounds; assay type: cell-based
Procedure: See […] et at., Oncol Res. 10, 523-31 (1998) and J. A. Johnson et al., Antimicrob. Agents Chemother. 43, 1198-205 (1999). […] For these experiments, the cells were seeded in 96-well microtiter plates and after 24 hours of growth, serial dilutions of the test compounds were added. The cells were not fed after addition of the compounds. After three, five, seven and ten days, the cells were harvested by trypsinization and counted with a Coulter Counter. Duplicate wells were analyzed for each dilution and the results averaged.

[9] = test system: human papillomavirus (HPV)-positive cell lines; details: literature (Andrei 1998; Johnson 1999); cited from earlier work
[10] = 72 h, Day 3, read-out: IC50 (concentration required to reduce cell growth by 50%)
[11] = 120 h, Day 5, read-out: IC50 (concentration required to reduce cell growth by 50%)
[12] = 168 h, Day 7, read-out: IC50 (concentration required to reduce cell growth by 50%)
[13] = 240 h, Day 10, read-out: IC50 (concentration required to reduce cell growth by 50%)

## 2′,3′-cyclophosphateadenylyl(2′,5′)adenylyl-(2′,5′)adenosine [Cmpd. I]
[1]; Day 3
  IC50 (concentration required to reduce cell growth by 50%): 110 µg/mL
[1]; Day 5
  IC50 (concentration required to reduce cell growth by 50%): 168 µg/mL
[1]; Day 7
  IC50 (concentration required to reduce cell growth by 50%): 262 µg/mL
[1]; Day 10
  IC50 (concentration required to reduce cell growth by 50%): 280 µg/mL
[2]; Day 3
  IC50 (concentration required to reduce cell growth by 50%): 66 µg/mL
[2]; Day 5
  IC50 (concentration required to reduce cell growth by 50%): 62 µg/mL
[2]; Day 7
  IC50 (concentration required to reduce cell growth by 50%): 90 µg/mL
[2]; Day 10
  IC50 (concentration required to reduce cell growth by 50%): 160 µg/mL
[3]; EiL8, Day 3
  IC50 (concentration required to reduce cell growth by 50%): 63 µg/mL
[3]; EiL8, Day 5
  IC50 (concentration required to reduce cell growth by 50%): 68 µg/mL
[3]; EiL8, Day 7
  IC50 (concentration required to reduce cell growth by 50%): 103 µg/mL
[3]; EiL8, Day 10
  IC50 (concentration required to reduce cell growth by 50%): 180 µg/mL
[4]; CK-1, Day 3
  IC50 (concentration required to reduce cell growth by 50%): 100 µg/mL
[4]; CK-1, Day 5
  IC50 (concentration required to reduce cell growth by 50%): 46 µg/mL
[4]; CK-1, Day 7
  IC50 (concentration required to reduce cell growth by 50%): 104 µg/mL
[4]; CK-1, Day 10
  IC50 (concentration required to reduce cell growth by 50%): 303 µg/mL
[5]; Day 3
  IC50 (concentration required to reduce cell growth by 50%): 150 µg/mL
[5]; Day 5
  IC50 (concentration required to reduce cell growth by 50%): 108 µg/mL
[5]; Day 7
  IC50 (concentration required to reduce cell growth by 50%): 141 µg/mL
[5]; Day 10
  IC50 (concentration required to reduce cell growth by 50%): 193 µg/mL
[6]
  inhibition of growth (in words): inhibit the growth
[7]
  inhibition of growth (in words): inhibit the growth
[8]
  growth inhibition / anti-proliferative activity (in words): anti-proliferative activity

## Nc1ccn(C[C@@H](CO)OCP(=O)(O)O)c(=O)n1 [HPMPC, 3-hydroxy-2-phosphonylmethoxy-propyl cytosine, reference compound]
[1]; [10]
  IC50: 9.9 µg/mL (≈ 35.5 µM)
[1]; [11]
  IC50: 7 µg/mL (≈ 25.1 µM)
[1]; [12]
  IC50: 6.4 µg/mL (≈ 22.9 µM)
[1]; [13]
  IC50: 3.7 µg/mL (≈ 13.3 µM)
[2]; [10]
  IC50: 37 µg/mL (≈ 133 µM)
[2]; [11]
  IC50: 5.6 µg/mL (≈ 20.1 µM)
[2]; [12]
  IC50: 3.9 µg/mL (≈ 14 µM)
[2]; [13]
  IC50: 4.7 µg/mL (≈ 16.8 µM)
[3]; 72 h, EiL8, Day 3
  IC50: 39 µg/mL (≈ 140 µM)
[3]; 120 h, EiL8, Day 5
  IC50: 7.9 µg/mL (≈ 28.3 µM)
[3]; 168 h, EiL8, Day 7
  IC50: 4.2 µg/mL (≈ 15 µM)
[3]; 240 h, EiL8, Day 10
  IC50: 3.5 µg/mL (≈ 12.5 µM)
[4]; CK1, 72 h, CK-1, Day 3
  IC50: 32 µg/mL (≈ 115 µM)
[4]; CK1, 120 h, CK-1, Day 5
  IC50: 1.1 µg/mL (≈ 3.94 µM)
[4]; CK1, 168 h, CK-1, Day 7
  IC50: 0.5 µg/mL (≈ 1.79 µM)
[4]; CK1, 240 h, CK-1, Day 10
  IC50: 1.2 µg/mL (≈ 4.3 µM)
[5]; [10]
  IC50: 179 µg/mL (≈ 641 µM)
[5]; [11]
  IC50: 8.6 µg/mL (≈ 30.8 µM)
[5]; [12]
  IC50: 4.7 µg/mL (≈ 16.8 µM)
[5]; [13]
  IC50: 4 µg/mL (≈ 14.3 µM)
[9]
  inhibition of proliferation of HPV-transformed cells (in words): inhibit the proliferation

## Nc1nc2c(ncn2COCCO)c(=O)[nH]1 [acyclovir, reference compound]
[8]
  growth inhibition / anti-proliferative activity (in words): With the exception of acyclovir, growth inhibition was observed
